Results on two molecules are retold here after patent publication US20080287531A1, “Preventive and/or Therapeutic Agent for Sleeping Disorder” (Kyowa Hakko Co., Ltd., priority 2004, published 2008).

Assay [1] concerns nasal congestion of allergic rhinitis. The following applies: Phase III test, Non-patent Document 7; cited from earlier work.
Assay [2] has as its system nasal congestion reaction. The following applies: guinea pigs, experimental allergic rhinitis model, Non-patent Document 8; cited from earlier work.
For assay [3], the system named is patients with sleep apnea syndrome / sleeping disorder. As to the kind of experiment: Daytime Epworth sleepness scale (ESS) test. The format is in vivo, human. Particulars: total of 8 conditions, 10 points or less is normal, oral 10 mg/day. Here is the method:
(§1) Olopatadine hydrochloride was orally administered at a dose of 10 mg/day [a 5-mg tablet of Allelock (registered trademark: Kyowa Hakko Kogyo Co., Ltd.) was administered everyday, twice a day, with one tablet for each administration] to three patients (patient Nos. 1 to 3) with sleep apnea syndrome complicated by allergic rhinitis and seven patients (patient Nos. 4 to 10) with sleeping disorder which is not complicated by allergic rhinitis including four patients (patient Nos. 4 to 6 and 8) with sleep apnea syndrome which is not complicated by allergic rhinitis. Before and after the administration of olopatadine hydrochloride, an apnea-hypopnea index (AHI), an apnea index (AI) and an arousals index per hour were measured respectively by polysonography (PSG) for each patient. Further, before and after the administration of olopatadine hydrochloride, a test for daytime Epworth sleepness scale was performed according to the following.
In the following conditions 1 to 8, sleepiness was determined according to the next four levels, and seriousness of daytime sleepiness was evaluated by the total (ESS) of the points. A case in which ESS is 10 points or less is evaluated as normal.
2 points=sometimes sleeps
1. when sitting and reading a book
2. when watching television
3. when sitting in a public place without movement (for example, in a theater or a conference room) […]

Assay [4] has the same test system. As to the kind of experiment: Polysonography (PSG) before and after administration of olopatadine hydrochloride. Particulars: for AI After therapy: apnea index by PSG; for AHI After therapy: apnea-hypopnea index by PSG; for Arousals Index After therapy: arousals index per hour by PSG. The format is in vivo, human. Here is the method:
as §1
The presence or absence of allergic rhinitis was confirmed by performing RAST (radioallergosorbent test) for 12 types of antigens [house dust, Dermatophagoides pteronyssinus, Japanese cedar, Hinoki cypress, Japanese alder, ragweed, mugwort, goldenrod, Cocksfoot (Dactylis glomerata), Candida albicans, mold and animal epithelium].
The patients uncomplicated by allergic rhinitis had airway obstruction caused by non-atopic rhinitis.

Assay [5] shares this test system. Put plainly: Estimation of effect on chief-complaint symptoms (snore, apnea, daytime sleepiness). It counts as in vivo, human. The following applies: for Estimation of effect: oral 10 mg/day. The protocol: as §1
The effect of the agent was estimated according to the following standard.
Incidentally, as objective assessment, improved conditions in values of AHI, AI, arousals index and ESS were used for reference.

Setting [6] is: oral 10 mg/day, 74-160 days, one line per patient (Nos. 4-10), sleeping disorder not complicated by allergic rhinitis.
Where [7] appears, read: oral 10 mg/day, 160-342 days, one line per patient (Nos. 1-3), sleep apnea syndrome complicated by allergic rhinitis.

Structures are written as SMILES. Values joined by “and” are separate entries in the source; they are usually repeats but may differ in a detail not shown here. Equal values may be shown once. “Also recorded” adds a separate entry of the source. Where a name gives a salt, the structure may show the parent alone.

Consider `CN(C)CC/C=C1/c2ccccc2COc2ccc(CC(=O)O)cc21` [compound 1, (Z)-11-(3-dimethylaminopropylidene)-6,11-dihydrodibenzo[b,e]oxepine-2-acetic acid], for which, in assay [1], the “Effect on nasal congestion of allergic rhinitis” value is given as “highly improve the nasal congestion of allergic rhinitis”. Moreover, the “Action on nasal congestion reaction” value in assay [2] is “inhibitory action on a nasal congestion reaction”.
Regarding `CN(C)CC/C=C1/c2ccccc2COc2ccc(CC(=O)O)cc21` [olopatadine hydrochloride], the “ESS After therapy” value in assay [3] (74-160 days, one line per patient (Nos. 4-10), not complicated by allergic rhinitis) was 11 points and 10 points (2×) and 8 points and 9 points (2×) and 12 points; in assay [3] (160-342 days, one line per patient (Nos. 1-3), complicated by allergic rhinitis), 12 points and 11 points and 9 points. In addition, the “AI After therapy” value in assay [4] (setting [6]) was 3.4 and 1.2 and 3.1 and 0.8 (2×) and 0.4 and 2.8; in assay [4] (setting [7]), 4.3 and 1.5 and 7.6. Moreover, the “AHI After therapy” value in assay [4] (oral 10 mg/day (5-mg tablet twice a day), 160-342 days, one line per patient (Nos. 1-3), sleep apnea syndrome complicated by allergic rhinitis) was 5.8 and 2.7 and 11.1; in assay [4] (setting [6]) it was 4.2 and 2.6 and 4.5 and 1.3 and 0.9 and 1.8 and 3.4. The “Arousals Index After therapy” value in assay [4] (setting [6]) was 5.9 and 2.6 and 5.3 and 2.3 and 1.8 and 2.1 and 4.9; in assay [4] (setting [7]), 10.3 and 4.4 and 18.9. The Estimation of effect result is given as “Improved; also recorded: Markedly” in assay [5] (74-160 days, one line per patient (Nos. 4-10), sleeping disorder not complicated by allergic rhinitis) and “Improved; also recorded: Markedly” in assay [5] (160-342 days, one line per patient (Nos. 1-3), sleep apnea syndrome complicated by allergic rhinitis). Further, the “Clinical effect on symptoms of sleeping disorder” value was “improves symptoms of sleeping disorder” in assay [5] (patients with sleep apnea syndrome complicated by allergic rhinitis, snore, apnea, hypopnea, arousals, daytime sleepiness); “improves symptoms of sleeping disorder” in assay [5] (patients with sleeping disorder not complicated by allergic rhinitis, snore, apnea, hypopnea, arousals, daytime sleepiness, morning headache); “improves symptoms of sleeping disorder” in assay [5] (regardless of the presence or absence of complication by allergic rhinitis).
